Data reported in ChEMBL document CHEMBL1201862, “PubChem BioAssay data set” (2004).
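96-well plates; 48 h exposure; 5 concentrations. Endpoints by linear interpolation between flanking doses. Not reached: highest tested concentration assigned. GI50 = concentration required for 50% inhibition of growth.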 The source made the active and inactive calls. Cut-off read from the data, not from the text of the source: active = GI50 up to about 1.1 µM and inactive = higher.

What was measured:
Experiment in all cases: growth of human tumour cells (NCI), 48 h
[1] = tested on: 786-0
[2] = tested on: A498
[3] = tested on: A549
[4] = tested on: ACHN
[5] = tested on: CAKI-1
[6] = tested on: CCRF-CEM
[7] = tested on: COLO 205
[8] = tested on: DLD-1
[9] = tested on: DMS-114
[10] = tested on: DMS-273
[11] = tested on: EKVX
[12] = tested on: HCC 2998
[13] = tested on: HCT-116
[14] = tested on: HCT-15
[15] = tested on: HL-60
[16] = tested on: HOP-18
[17] = tested on: HOP-62
[18] = tested on: HT-29
[19] = tested on: IGROV-1
[20] = tested on: K562
[21] = tested on: KM-20L2
[22] = tested on: KM12
[23] = tested on: LOX IMVI
[24] = tested on: LXFL 529
[25] = tested on: M14
[26] = tested on: MOLT-4
[27] = tested on: Malme-3M
[28] = tested on: NCI-H226
[29] = tested on: NCI-H23
[30] = tested on: NCI-H460
[31] = tested on: NCI-H522
[32] = tested on: OVCAR-3
[33] = tested on: OVCAR-4
[34] = tested on: OVCAR-5
[35] = tested on: OVCAR-8
[36] = tested on: RPMI-8226
[37] = tested on: RXF 393
[38] = tested on: SF-268
[39] = tested on: SF-295
[40] = tested on: SF-539
[41] = tested on: SK-MEL-28
[42] = tested on: SK-MEL-2
[43] = tested on: SK-MEL-5
[44] = tested on: SK-OV-3
[45] = tested on: SN12C
[46] = tested on: SNB-19
[47] = tested on: SNB-75
[48] = tested on: SNB-78
[49] = tested on: SW-620
[50] = tested on: TK-10
[51] = tested on: UACC-257
[52] = tested on: UACC-62
[53] = tested on: UO-31
[54] = tested on: XF498
[55] = tested on: HOP-92
[56] = tested on: M19-MEL
[57] = tested on: MCF7
[58] = tested on: NCI/ADR-RES
[59] = tested on: U-251

For CC1(C)OB(O)OC1(C)C, the GI50 [1] was > 100 µM (inactive), the GI50 [2] was > 100 µM (inactive) and the GI50 [3] was > 100 µM (inactive). The GI50 [4] was > 100 µM (inactive), the GI50 [5] was > 100 µM (inactive) and the GI50 [6] was > 100 µM (inactive). For the same molecule, the GI50 [7] was > 100 µM (inactive), the GI50 [8] was > 100 µM (inactive) and the GI50 [9] was > 100 µM (inactive). For the same molecule, the GI50 [10] was > 100 µM (inactive), the GI50 [11] was > 100 µM (inactive) and the GI50 [12] was > 100 µM (inactive). For the same molecule, the GI50 [13] was > 100 µM (inactive), the GI50 [14] was > 100 µM and the GI50 [15] was > 100 µM (inactive). For the same molecule, the GI50 [16] was > 100 µM (inactive), the GI50 [17] was > 100 µM (inactive) and the GI50 [18] was > 100 µM (inactive). For the same molecule, the GI50 [19] was > 100 µM (inactive), the GI50 [20] was > 100 µM (inactive) and the GI50 [21] was > 100 µM (inactive). The GI50 [22] was > 100 µM (inactive), the GI50 [23] was > 100 µM (inactive) and the GI50 [24] was > 100 µM (inactive). The GI50 [25] was > 100 µM (inactive), the GI50 [26] was > 100 µM (inactive) and the GI50 [27] was > 100 µM (inactive). For the same molecule, the GI50 [28] was > 100 µM (inactive), the GI50 [29] was > 100 µM (inactive) and the GI50 [30] was > 100 µM (inactive). The GI50 [31] was > 100 µM (inactive), the GI50 [32] was > 100 µM (inactive) and the GI50 [33] was > 100 µM (inactive). The GI50 [34] was > 100 µM (inactive), the GI50 [35] was > 100 µM (inactive) and the GI50 [36] was > 100 µM (inactive). The GI50 [37] was > 100 µM (inactive), the GI50 [38] was > 100 µM (inactive) and the GI50 [39] was > 100 µM (inactive). The GI50 [40] was > 100 µM (inactive), the GI50 [41] was > 100 µM (inactive) and the GI50 [42] was > 100 µM (inactive). For the same molecule, the GI50 [43] was > 100 µM (inactive), the GI50 [44] was > 100 µM (inactive) and the GI50 [45] was > 100 µM (inactive). For the same molecule, the GI50 [46] was > 100 µM (inactive), the GI50 [47] was > 100 µM (inactive) and the GI50 [48] was > 100 µM (inactive). The GI50 [49] was > 100 µM (inactive), the GI50 [50] was > 100 µM (inactive) and the GI50 [51] was > 100 µM (inactive). The GI50 [52] was > 100 µM (inactive), the GI50 [53] was > 100 µM (inactive) and the GI50 [54] was > 100 µM (inactive).
In the case of O=C1C(=O)c2cc([N+](=O)[O-])ccc2-c2ccc([N+](=O)[O-])cc21, the GI50 [2] was 1.9 µM (inactive), the GI50 [3] was 2.52 µM (inactive) and the GI50 [5] was 0.733 µM (active). For the same molecule, the GI50 [6] was 0.289 µM (active), the GI50 [7] was 3.01 µM (inactive) and the GI50 [8] was 1.64 µM (inactive). For the same molecule, the GI50 [9] was 0.375 µM (active), the GI50 [10] was 0.397 µM (active) and the GI50 [11] was 2.04 µM (inactive). The GI50 [12] was 2.25 µM (inactive), the GI50 [13] was 0.177 µM (active) and the GI50 [14] was 0.785 µM. The GI50 [15] was 0.246 µM (active), the GI50 [16] was 1.71 µM (inactive) and the GI50 [17] was 2.89 µM (inactive). For the same molecule, the GI50 [55] was 0.21 µM (active), the GI50 [18] was 7.46 µM (inactive) and the GI50 [19] was 0.748 µM (active). For the same molecule, the GI50 [20] was 0.395 µM (active), the GI50 [21] was 4.88 µM (inactive) and the GI50 [22] was 0.935 µM (active). The GI50 [23] was 0.346 µM (active), the GI50 [56] was 0.285 µM (active) and the GI50 [57] was 0.933 µM (active). For the same molecule, the GI50 [26] was 0.288 µM (active), the GI50 [27] was 1.97 µM (inactive) and the GI50 [28] was 1.51 µM (inactive). The GI50 [29] was 0.682 µM (active), the GI50 [30] was 1 µM (active) and the GI50 [31] was 0.863 µM (active). For the same molecule, the GI50 [58] was 0.344 µM (active), the GI50 [32] was 0.29 µM (active) and the GI50 [33] was 0.322 µM (active). For the same molecule, the GI50 [34] was 3.27 µM (inactive), the GI50 [35] was 0.351 µM (active) and the GI50 [36] was 0.302 µM (active). For the same molecule, the GI50 [37] was 0.191 µM (active), the GI50 [38] was 0.484 µM (active) and the GI50 [39] was 1.71 µM (inactive). The GI50 [40] was 0.741 µM (active), the GI50 [41] was 1.99 µM (inactive) and the GI50 [42] was 2.02 µM (inactive). For the same molecule, the GI50 [43] was 1.92 µM (inactive), the GI50 [44] was 2.51 µM (inactive) and the GI50 [45] was 0.927 µM (active). For the same molecule, the GI50 [46] was 1.74 µM (inactive), the GI50 [47] was 2.14 µM (inactive) and the GI50 [48] was 0.698 µM (active). For the same molecule, the GI50 [49] was 0.401 µM (active), the GI50 [59] was 0.773 µM (active) and the GI50 [51] was 1.2 µM (inactive). For the same molecule, the GI50 [52] was 0.466 µM (active), the GI50 [53] was 1.51 µM (inactive) and the GI50 [54] was 1.23 µM (inactive).
